Assay results reported in patent US6992105B2, “Dipeptide derivatives” (Novartis AG, priority 2001, dated 2006).

Legend:
[1] = test system: angiotensin I induced pressor response (ACE); test: inhibition of the angiotensin I induced pressor response in normotensive rats; format: in vivo, rat; details: conscious normotensive rats
Experimental: The in vivo test for i.v. administered compounds is performed with male, normotensive rats, which are conscious. A femoral artery and femoral vein are cannulated respectively for direct blood pressure measurement on i.v. administration of angiotensin I and i.v. or p.o. administration of a compound of this invention. After the basal blood pressure is stabilized, pressor responses to 3 or 4 challenges of 300 ng/kg angiotensin I i.v., at 15-minute intervals, are obtained. Such pressure responses are usually again obtained at 15, 30, 60 and 90 minutes, and then every hour up to 6 hours after i.v. or p.o. administration of the compound to be tested, and compared with the initial responses. Any observed decrease of said pressor response is an indication of ACE inhibition.

[2] = test system: spontaneously hypertensive rat (SHR); test: anti-hypertensive activity in the spontaneously hypertensive rat (SHR); format: in vivo; details: conscious SHR, once daily administration of 11.8 mg/kg p.o.
Excerpt: The anti-hypertensive activity can be determined, e.g., in the spontaneously hypertensive rat (SHR) and the DOCA-salt hypertensive rat, e.g., according to Bazil et al., J. Cardiovasc. Pharmacol., Vol. 22, pp. 897–905 (1993) and Trapani et al., J. Cardiovasc. Pharmacol., Vol. 14, pp. 419–424 (1989), respectively.

[3] = test system: plasma ANF concentration (NEP inhibition); test: effect on rat plasma ANF concentration; format: in vivo; details: 11.8 mg/kg p.o., rats infused with ANF 450 ng/kg/min i.v.
Experimental: The effect of the compounds of the invention on rat plasma ANF concentration can be determined as follows:
Male Sprague-Dawley rats (275–390 g) are anesthetized with ketamine (150 mg/kg)/acepromazine (10%) and instrumented with catheters in the femoral artery and vein to obtain blood samples and infuse ANF, respectively. The rats are tethered with a swivel system and are allowed to recover for 24 hours before being studied in the conscious, unrestrained state.
In the assay, plasma ANF levels are determined in the presence and absence of NEP inhibition. On the day of study, all rats are infused continuously with ANF at 450 ng/kg/min. i.v. for the entire 5 hours of the experiment. Sixty minutes after beginning the infusion, blood samples for baseline ANF measurements are obtained (time 0) and the rats are then randomly divided into groups treated with the test compound or vehicle. Additional blood samples are taken 30, 60, 120, 180 and 240 minutes after administration of the test compound.
Plasma ANF concentrations are determined by a specific radioimmunoassay. […] The supernatant is decanted and the pellets counted in a gamma counter. […] Plasma ANF levels are expressed as a percent of those measured in vehicle-treated animals which received ANF alone (450 ng/kg/min. i.v.)

[4] = target: angiotensin converting enzyme (ACE) (Homo sapiens, UniProt P12821); test: in vitro inhibition of ACE (hippuryl-histidyl-leucine substrate); format: biochemical; details: ACE in vitro assay
Sequence of angiotensin converting enzyme (ACE) (P12821 30-1306, species assumed): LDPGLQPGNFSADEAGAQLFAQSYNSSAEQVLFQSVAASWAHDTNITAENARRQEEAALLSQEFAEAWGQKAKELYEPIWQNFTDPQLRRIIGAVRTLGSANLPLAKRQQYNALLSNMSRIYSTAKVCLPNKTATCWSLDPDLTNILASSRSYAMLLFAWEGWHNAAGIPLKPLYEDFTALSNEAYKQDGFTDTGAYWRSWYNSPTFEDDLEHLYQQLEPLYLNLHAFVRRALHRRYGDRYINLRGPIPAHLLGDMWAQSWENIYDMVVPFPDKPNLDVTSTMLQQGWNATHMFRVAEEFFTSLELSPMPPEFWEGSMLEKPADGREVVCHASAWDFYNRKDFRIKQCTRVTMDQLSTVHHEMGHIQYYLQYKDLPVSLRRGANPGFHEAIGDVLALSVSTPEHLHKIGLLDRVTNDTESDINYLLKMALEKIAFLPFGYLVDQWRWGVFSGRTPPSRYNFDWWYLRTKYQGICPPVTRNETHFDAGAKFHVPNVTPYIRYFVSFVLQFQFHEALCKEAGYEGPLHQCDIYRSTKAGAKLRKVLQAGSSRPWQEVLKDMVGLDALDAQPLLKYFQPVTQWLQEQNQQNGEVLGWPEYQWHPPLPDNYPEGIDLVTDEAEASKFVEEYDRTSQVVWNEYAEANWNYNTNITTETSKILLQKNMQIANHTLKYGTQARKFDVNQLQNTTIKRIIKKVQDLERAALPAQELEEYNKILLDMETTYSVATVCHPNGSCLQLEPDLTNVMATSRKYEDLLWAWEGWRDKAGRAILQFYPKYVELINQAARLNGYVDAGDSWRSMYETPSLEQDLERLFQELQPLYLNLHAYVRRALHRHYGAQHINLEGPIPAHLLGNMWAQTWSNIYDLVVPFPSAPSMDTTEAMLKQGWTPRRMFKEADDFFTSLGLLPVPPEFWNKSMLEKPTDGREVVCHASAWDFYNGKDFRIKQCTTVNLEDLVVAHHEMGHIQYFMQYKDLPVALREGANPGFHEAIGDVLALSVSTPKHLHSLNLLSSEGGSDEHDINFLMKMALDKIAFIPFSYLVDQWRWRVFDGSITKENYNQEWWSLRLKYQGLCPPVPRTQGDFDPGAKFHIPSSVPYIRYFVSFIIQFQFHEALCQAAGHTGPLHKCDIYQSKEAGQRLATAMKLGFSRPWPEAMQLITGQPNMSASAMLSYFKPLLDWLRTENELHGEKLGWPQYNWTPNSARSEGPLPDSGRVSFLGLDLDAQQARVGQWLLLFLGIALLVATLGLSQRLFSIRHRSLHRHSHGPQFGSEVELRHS
Experimental: In vitro testing is most appropriate for the free carboxylic acids of the invention. The test compound is dissolved in dimethyl sulfoxide, ethanol or 0.25 M sodium bicarbonate solution, and the solution is diluted with buffer to the desired concentration.
The buffer for the ACE assay is 300 mM NaCl, 100 mM KH2PO4 (pH 8.3). The reaction is initiated by the addition of 100 μL of hippuryl-histidyl-leucine (2 mg/mL) to tubes containing enzyme and drug in a volume of 150 μL and tubes are incubated for 30 minutes at 37° C. The reaction is terminated by the addition of 0.75 mL 0.6 N NaOH. 100 μL of freshly prepared O-pthaldehyde solution (2 mg/mL in methanol) is added to the tubes, the contents are mixed and allowed to stand at room temperature. After 10 minutes, 100 μL of 6 N HCl is added. The tubes are centrifuged and the supernatant optical density is read at 360 nm. The results are plotted against drug concentration to determine the IC50, i.e., the drug concentration which gives half the activity of the control sample containing no drug.

[5] = target: T1, NEP (EC 3.4.24.11) (Rattus norvegicus, UniProt P07861); test: in vitro inhibition of NEP (GAAP substrate, rat kidney cortex membranes); format: biochemical; details: substrate glutaryl-Ala-Ala-Phe-2-naphthylamide (GAAP)
T1 construct: protein (rat kidney cortex membranes prepared by method of Maeda et al., 1983); from tissue; host or cells: rat kidney cortex membranes
T1 sequence (P07861 1-750): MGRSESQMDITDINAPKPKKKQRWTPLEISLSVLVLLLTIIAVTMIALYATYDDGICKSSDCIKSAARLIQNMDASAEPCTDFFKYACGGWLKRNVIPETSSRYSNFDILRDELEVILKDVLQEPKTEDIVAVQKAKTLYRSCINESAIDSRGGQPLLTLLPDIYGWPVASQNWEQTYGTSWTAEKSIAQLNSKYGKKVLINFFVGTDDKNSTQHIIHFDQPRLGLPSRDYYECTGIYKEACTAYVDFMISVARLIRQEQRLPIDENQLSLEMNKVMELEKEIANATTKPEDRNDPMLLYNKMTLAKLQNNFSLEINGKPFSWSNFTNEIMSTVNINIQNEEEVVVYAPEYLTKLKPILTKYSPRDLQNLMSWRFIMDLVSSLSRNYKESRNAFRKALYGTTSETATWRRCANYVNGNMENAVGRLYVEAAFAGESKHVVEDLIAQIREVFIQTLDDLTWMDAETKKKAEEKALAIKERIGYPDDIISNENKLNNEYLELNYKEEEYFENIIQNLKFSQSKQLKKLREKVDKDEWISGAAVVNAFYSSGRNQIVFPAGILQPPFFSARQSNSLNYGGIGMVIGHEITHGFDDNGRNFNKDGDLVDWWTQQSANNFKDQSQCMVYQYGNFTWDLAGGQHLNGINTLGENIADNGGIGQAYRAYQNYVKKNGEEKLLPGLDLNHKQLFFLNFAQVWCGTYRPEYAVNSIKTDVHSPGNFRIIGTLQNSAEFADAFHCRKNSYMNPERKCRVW
Experimental: The in vitro inhibition of NEP (EC 3.4.24.11) can be determined as follows:
NEP 3.4.24.11 activity is determined by the hydrolysis of the substrate glutaryl-Ala-Ala-Phe-2-naphthylamide (GAAP) using a modified procedure of Orlowski and Wilk (1981). The incubation mixture (total volume 125 μL) contains 4.2 μL of protein (rat kidney cortex membranes prepared by method of Maeda et al., 1983), 50 mM tris buffer, pH 7.4 at 25° C., 500 μM substrate (final concentration), and leucine aminopeptidase M (2.5 μg). The mixture is incubated for 10 minutes at 25° C., and 100 μL of fast garnet (250 μg fast garnet/mL of 10% Tween 20 in 1 M sodium acetate pH 4.2) is added. Enzyme activity is measure spectrophotometrically at […]. One unit of NEP 24.11 activity is defined as 1 nmol of 2-naphthylamine released per minute at 25° C. at pH 7.4. IC50 values are determined, i.e., the concentration of test compound required for 50% inhibition of the release of 2-naphthylamine.
NEP activity can also be determined using ANF as a substrate. ANF degrading activity is determined by measuring the disappearance of rat-ANF (r-ANF) using a 3-minute reverse phase-HPLC separation. An aliquot of the enzyme in 50 mM tris HCl buffer, pH 7.4, is pre-incubated at 37° C. for 2 minutes and the reaction is initiated by the addition of 4 nmol of r-ANF in a total volume of 50 μL. […]

| SMILES | duration of inhibition of the angiotensin I induced pressor response ([1]; 11.8 mg/kg p.o.) [h] | effect on mean arterial pressure [2] | increase of plasma ANF levels [3] | duration of inhibition of the angiotensin I induced pressor response ([1]; 10 mg/kg i.v.) [h] | IC50 [4] [nM] | IC50 [5] [nM] |
| --- | --- | --- | --- | --- | --- | --- |
| CCOC(=O)[C@H](COCc1ccccc1)NC(=O)C(C)(C)NC(=O)[C@@H](SC(C)=O)C(C)C [Example 1(a), N-[2-[(S)-2-Acetylthio-3-methylbutanoylamino]-2-methylpropionyl]-O-benzyl-L-serine ethyl ester] | 6 | reduces mean arterial pressure | about 70% |  |  |  |
| CC(C)[C@H](S)C(=O)NC(C)(C)C(=O)N[C@@H](COCc1ccccc1)C(=O)O [Example 6(a), N-[2-[(S)-2-Mercapto-3-methylbutanoylamino]-2-methylpropionyl]-O-benzyl-L-serine] |  |  |  | 3 | ~20 | ~5 |
